Measured values as given in patent US6630510B1, “Substituted succinic acid metallo-β-lactamase inhibitors and their use in treating bacterial infections” (priority 1999, dated 2003).

Assays:
[1] = system: E. coli BL21(DE3)/pET30a-IMP-1; test: Carbapenem sensitivity (MIC) of E. coli expressing IMP-1; assay type: cell-based; conditions: for fold reduced sensitivity resulting from basal (uninduced) IMP-1 expression: pET30a-IMP-1 introduced into E. coli BL21(DE3)
Source text: A laboratory strain of E.coli engineered to express IMP-1 was used to evaluate the ability of succinate derivatives to reverse metallo-β-lactamase-mediated carbapenem resistance in bacteria. Native IMP-1, which included the N-terminal periplasmic signal sequence, was PCR amplified from […] isolated from a carbapenem resistant P. aeruginosa clinical isolate, CL56673, and cloned into the pET30a vector. […] To evaluate IMP-1 inhibitors, an overnight culture of E. coli BL2(DE3)/pET30a-IMP-1, grown 35° C. in LB broth (Difco) or Mueller Hinton broth (BBL) supplemented with kanamycin ([…]), was diluted to a final concentration of ˜10^5 cells/ml in Mueller Hinton broth (BBL) containing a subinhibitory concentration (0.25×MIC) of the carbapenem, (1S,5R,6S)-1-methyl-2-{7-[4-(aminocarbonylmethyl)-1,4-diazoniabicyclo(2.2.2)octan-1-yl]methyl-fluoren-9-on-3-yl}-6-(1R-hydroxyethyl)carbapen-2-em-3-carboxylate chloride. Various concentrations of IMP-1 inhibitor were added to the bacterial growth medium and their capacity to effect a four-fold or greater increase in sensitivity to the carbapenem was monitored.

[2] = system: E. coli BL21(DE3); test: Carbapenem MIC in E. coli without IMP-1 expression; assay type: cell-based; conditions: without expression of IMP-1

Compound	fold reduced sensitivity resulting from basal (uninduced) IMP-1 expression [1] [fold]	minimum inhibitory concentration (MIC) ([1]; with expression of IMP-1) [µg/mL]	minimum inhibitory concentration (MIC) [2] [µg/mL]
C[C@@H](O)[C@H]1C(=O)N2C(C(=O)O)=C(SCCN=CN)C[C@H]12 [impenem, imipenem, reference compound]	4	–	–
C[C@@H](O)[C@H]1C(=O)N2C(C(=O)O)=C(S[C@@H]3CN[C@H](C(=O)N(C)C)C3)[C@H](C)[C@H]12 [meropenem, reference compound]	64	–	–
(1S,5R,6S)-1-methyl-2-{7-[4-(aminocarbonylmethyl)-1,4-diazoniabicyclo(2.2.2)octan-1-yl]methyl-fluoren-9-on-3-yl}-6-(1R-hydroxyethyl)-carbapen-2-em-3-carboxylate chloride	500	16 to 32	0.06 to 0.12
